pIC50: −log10 of the molar value.
What was measured:
Solubility in PBS = format: physicochemical; details: Yes/NO
[1] = test system: CH58TF infected primary CD4+ T-cells; experiment: HIV+ patient sera/plasma recognition of CH58TF infected primary CD4+ T-cells (flow cytometry cell-surface staining); format: cell-based, HIV-1; details: for fold induction at 50 µM: Human immunodeficiency virus 1, T-cell, read-out: Fold Over DMSO (patient sera, n = 3); for recognition of infected cells by plasma from 15 HIV-1-infected individuals: 50 μM, 1:1000 diluted HIV+ plasma, result in words
Method in brief: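 Primary CD4+ T cells from PBMC infected with HIV-1 CH58TF for 48 h, then surface-stained with 1:1000 HIV+ plasma or 5 μg/ml 17b plus 50 μM MCG analogs or DMSO; Alexa Fluor 647 anti-human IgG detection by flow cytometry, infected cells gated p24+. Values are fold change over DMSO.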

[2] = test system: CH58TF infected primary CD4+ T-cells; experiment: Recognition of HIV-1 infected cells by 17b (flow cytometry cell-surface staining); format: cell-based; details: for fold induction at 50 µM: Human immunodeficiency virus 1, T-cell, read-out: Fold Over DMSO (17b, n = 1); for recognition of infected cells by the anti-CoRBS 17b antibody: 50 μM, 5 μg/ml 17b, result in words
Method in brief: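 Primary CD4+ T cells infected 48 h with HIV-1 CH58TF, stained with 5 μg/ml 17b plus MCG analogs (50 μM), (+)-BNM-III-170 or DMSO vehicle. Detection by Alexa Fluor 647 anti-human IgG secondary and flow cytometry. Infected cells gated as p24+ living cells.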

HIV-1CH58TF [3] = experiment: Sensitization of viral particles to neutralization by 17b (TZM-bl); format: cell-based; details: sub-inhibitory concentrations (20 μM (S)-MCG-IV-210)
Procedure: (§1) To evaluate the direct virus-neutralizing ability of the analogs, I, HIV-1CH58TF was incubated with indicated amounts of different compounds or DMSO for 1 hour at 37° C., then added to TZM-bl cells. After incubation for 48 h at 37° C., luciferase activity was measured. Relative infectivity was calculated as the percentage of the value seen in the absence of compound. To measure the ability of (S)-MCG-IV-210 to sensitize viral particles to neutralization by otherwise non-neutralizing 17b (FIG. 15F), HIV-1CH58TF was incubated with the indicated amounts of 17b in the presence of 0.5 μM (+)-BNM-III-170, 20 μM (S)-MCG-IV-210 or DMSO for 1 hour at 37° C., then added to TZM-bl cells. After incubation for 48 h at 37° C., luciferase activity was measured.
Another well-documented antiviral property of CD4mc is their capacity to sensitize viral particles to neutralization by otherwise non-neutralizing antibodies. See, Madani, 2018, Nat. Commun. 9:2363; Madani, 2014, J. Virol. 88:6542-6555; and Madani, 2016, J. Virol., 90:5031-5046. (S)-MCG-IV-210 was tested to determine if this compound shared this property.

HIV-1CH58TF [4] = experiment: Virus neutralization in TZM-bl assay; format: cell-based; details: Human immunodeficiency virus 1; TZM-bl cells; read-out: IC50, inhibition of HIV-1CH58TF infection
Procedure: as §1
As a positive control, (+)-BNM-III-170 was used, which has been reported to inhibit HIV-1 infection at low micromolar concentrations. See, Melillo, ACS Med Chem Lett 7:330-334. […] While all tested MCG analogs also neutralized HIV-1CH58TF, they did so with only modest potency (FIG. 15E).

[5] = test system: HIV-1CH58TF Env on virions; experiment: Virus-based ELISA (VBE) virus capture assay; format: cell-based

In the case of CS(=O)(=O)N1CCC[C@H](C(=O)Nc2ccc(Br)cc2)C1 [(S)-MCG-III-027-A02], the “Solubility (in PBS)” value (Solubility in PBS) was “Yes”, the fold induction at 50 µM [1] was 2.08 and the fold induction at 50 µM [2] was 1.65.
With CS(=O)(=O)N1CCC[C@H](C(=O)Nc2ccc(F)cc2)C1 [(S)-MCG-III-027-A03] the “Solubility (in PBS)” value (Solubility in PBS) was “Yes”, the fold induction at 50 µM [1] was 1.52 and the fold induction at 50 µM [2] was 1.12.
For CS(=O)(=O)N1CCC[C@H](C(=O)Nc2cccc(Cl)c2)C1 [(S)-MCG-III-027-B01], the “Solubility (in PBS)” value (Solubility in PBS) was “Yes”, the fold induction at 50 µM [1] was 1.37 and the fold induction at 50 µM [2] was 1.04.
With CS(=O)(=O)N1CCC[C@H](C(=O)Nc2cccc(Br)c2)C1 [(S)-MCG-III-027-B02] the “Solubility (in PBS)” value (Solubility in PBS) was “Yes”, the fold induction at 50 µM [1] was 1.62 and the fold induction at 50 µM [2] was 1.06.
In the case of CS(=O)(=O)N1CCC[C@H](C(=O)Nc2cccc(F)c2)C1 [(S)-MCG-III-027-B03], the “Solubility (in PBS)” value (Solubility in PBS) was “Yes”, the fold induction at 50 µM [1] was 1.44 and the fold induction at 50 µM [2] was 1.05.
In the case of CS(=O)(=O)N1CCC[C@H](C(=O)Nc2cccc(C(F)(F)F)c2)C1 [(S)-MCG-III-027-B04], the “Solubility (in PBS)” value (Solubility in PBS) was “Yes”, the fold induction at 50 µM [1] was 1.47 and the fold induction at 50 µM [2] was 1.01.
With COc1cccc(NC(=O)[C@H]2CCCN(S(C)(=O)=O)C2)c1 [(S)-MCG-III-027-B05] the “Solubility (in PBS)” value (Solubility in PBS) was “Yes”, the fold induction at 50 µM [1] was 1.71 and the fold induction at 50 µM [2] was 1.03.
With CS(=O)(=O)N1CCC[C@H](C(=O)Nc2ccccc2Cl)C1 [(S)-MCG-III-027-C01] the “Solubility (in PBS)” value (Solubility in PBS) was “Yes”, the fold induction at 50 µM [1] was 1.06 and the fold induction at 50 µM [2] was 1.14.
With CS(=O)(=O)N1CCC[C@H](C(=O)Nc2ccc(F)cc2F)C1 [(S)-MCG-III-027-D04] the “Solubility (in PBS)” value (Solubility in PBS) was “Yes”, the fold induction at 50 µM [1] was 1.24 and the fold induction at 50 µM [2] was 1.17.
With CS(=O)(=O)N1CCC[C@H](C(=O)Nc2ccc(Cl)c(F)c2)C1 [(S)-MCG-III-027-D05] the “Solubility (in PBS)” value (Solubility in PBS) was “Yes”, the “recognition of infected cells by plasma from 15 HIV-1-infected individuals” value (“recognition of infected cells by plasma” below) [1] was “enhanced the recognition of infected cells” and the fold induction at 50 µM [1] was 2.83. For the same molecule, the “recognition of infected cells by the anti-CoRBS 17b antibody” value [2] was “enhanced the recognition of infected cells” and the fold induction at 50 µM [2] was 2.22.
With CCS(=O)(=O)N1CCC[C@H](C(=O)Nc2ccc(Cl)c(F)c2)C1 [(S)-MCG-III-085-C01] the “Solubility (in PBS)” value (Solubility in PBS) was “Yes”, the fold induction at 50 µM [1] was 3.28 and the fold induction at 50 µM [2] was 5.7.
For Cn1cnc(S(=O)(=O)N2CCC[C@H](C(=O)Nc3ccc(Cl)c(F)c3)C2)c1 [(S)-MCG-III-116-A02], the fold induction at 50 µM [1] was 1.97.
For COC(=O)N1CCC[C@H](C(=O)Nc2ccc(Cl)c(F)c2)C1 [(S)-MCG-III-188-A01], the “Solubility (in PBS)” value (Solubility in PBS) was “Yes”, the “recognition of infected cells by plasma” value [1] was “enhanced the recognition of infected cells” and the fold induction at 50 µM [1] was 2.69. For the same molecule, the “recognition of infected cells by the anti-CoRBS 17b antibody” value [2] was “enhanced the recognition of infected cells” and the fold induction at 50 µM [2] was 7.11.
With CCOC(=O)N1CCC[C@H](C(=O)Nc2ccc(Cl)c(F)c2)C1 [(S)-MCG-III-188-A02] the “Solubility (in PBS)” value (Solubility in PBS) was “Yes”, the “recognition of infected cells by plasma” value [1] was “enhanced the recognition of infected cells” and the fold induction at 50 µM [1] was 3.83. For the same molecule, the “recognition of infected cells by the anti-CoRBS 17b antibody” value [2] was “enhanced the recognition of infected cells” and the fold induction at 50 µM [2] was 6.35.
In the case of CCCNC(=O)N1CCC[C@H](C(=O)Nc2ccc(Cl)c(F)c2)C1 [(S)-MCG-IV-031-A05], the “recognition of infected cells by plasma” value [1] was “enhanced the recognition of infected cells” and the “recognition of infected cells by the anti-CoRBS 17b antibody” value [2] was “enhanced the recognition of infected cells”.
With NCCNC(=O)N1CCC[C@H](C(=O)Nc2ccc(Cl)c(F)c2)C1 [(S)-MCG-IV-210] the “neutralization by 17b of viral particles sensitized with compound” value (HIV-1CH58TF [3]) was “potently neutralized”, the pIC50 (HIV-1CH58TF [4]) was 5.16 and the “recognition of infected cells by plasma” value [1] was “enhanced the recognition of infected cells”. For the same molecule, the “17b-mediated capture of virions” value ([5]; 50 μM compound) was “dramatic increase”, the “virion capture by the A32 and C11 Cluster A antibodies” value ([5]; 50 μM compound in combination with 5 μg/ml 17b) was “permit virion capture” and the “recognition of infected cells by the anti-CoRBS 17b antibody” value [2] was “enhanced the recognition of infected cells”.
O=C(Nc1ccc(Cl)c(F)c1)C1CCCN(S(=O)(=O)c2ccccc2)C1 (stereo not drawn) [MCG-III-157-B03] showed a fold induction at 50 µM [1] of 3.73.
With Cn1cnc(S(=O)(=O)N2CCCC(C(=O)Nc3ccc(Cl)c(F)c3)C2)c1 (stereo not drawn) [MCG-III-157-B04] the “Solubility (in PBS)” value (Solubility in PBS) was “Yes” and the fold induction at 50 µM [1] was 2.4.
In the case of O=C(Nc1ccc(Cl)c(F)c1)C1CCCOC1 (stereo not drawn) [MCG-III-207], the “Solubility (in PBS)” value (Solubility in PBS) was “Yes”, the fold induction at 50 µM [1] was 1.92 and the fold induction at 50 µM [2] was 3.69.

From patent US12286401B2, “Small molecules that sensitize HIV-1 infected cells to antibody dependent cellular cytotoxicity” (THE TRUSTEES OF THE UNIVERSITY OF PENNSYLVANIA, priority 2018, dated 2025)
